Source: US20020164348A1 (priority 2000, published 2002)

Key:
poliovirus polymerase [1] = biological target: T1, poliovirus polymerase (Poliovirus type 1, UniProt P03300)
[2] = biological target: lattices of poliovirus polymerase (Poliovirus type 1, UniProt P03300)
poliovirus polymerase [3] = biological target: T1, poliovirus polymerase; remark: listed apart in the source
poliovirus polymerase [4] = biological target: T1, poliovirus polymerase; remark: listed apart in the source

T1 sequence (P03300 1749-2209 limits assumed): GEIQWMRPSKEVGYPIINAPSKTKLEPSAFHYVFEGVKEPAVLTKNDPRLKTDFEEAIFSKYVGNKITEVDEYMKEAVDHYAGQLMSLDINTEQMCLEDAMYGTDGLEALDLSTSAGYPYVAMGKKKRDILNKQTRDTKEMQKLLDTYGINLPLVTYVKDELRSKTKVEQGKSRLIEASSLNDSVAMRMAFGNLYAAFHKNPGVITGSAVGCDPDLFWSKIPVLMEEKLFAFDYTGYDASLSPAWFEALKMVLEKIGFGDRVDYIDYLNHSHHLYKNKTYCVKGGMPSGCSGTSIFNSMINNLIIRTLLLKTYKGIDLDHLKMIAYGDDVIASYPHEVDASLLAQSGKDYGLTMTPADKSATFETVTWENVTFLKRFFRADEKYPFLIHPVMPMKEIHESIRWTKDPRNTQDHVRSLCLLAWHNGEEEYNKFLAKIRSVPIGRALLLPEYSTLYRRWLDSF
Chain of lattices of poliovirus polymerase (P03300 1749-2209 limits assumed): as above

KPHKCTFEGCRKSYSRSTNLRRHLNSH (SEQ ID NO:5) [Peptide 1]
cooperativity of the elongation reaction (poliovirus polymerase [1]): loss of cooperativity
inhibition of poliovirus polymerase (poliovirus polymerase [1]): inhibits poliovirus polymerase effectively
inhibition of the polymerase reaction (poliovirus polymerase [1]): marked inhibition
sheets and tubes of polymerase by electron microscopy [2]: replaced by large aggregates and more narrow ribbons
amount of UTP incorporated (poliovirus polymerase [3]): diminished
UTP incorporation (poliovirus polymerase [4]): dramatic stimulation
